These results are taken from patent US11058654B2, “Compositions and methods for the treatment of hemoglobinopathies and thalassemias” (AXCELLA HEALTH INC., priority 2018, dated 2021).

Molecules are shown by their SMILES.

Holding throughout (format): cell-based, human
One assay concerns VCAM-1. In words: VCAM-1 cell integrated intensity in HLMVEC treated with TNFa. As to conditions: 0.5 ng/mL TNFα; amino acids at 20×; 24 hours; in words. An excerpt: (§1) A VEC model was employed to assess the ability of amino acids to influence aspects of vascular dysfunction in SCD. TNFa treatment of healthy donor HLMVEC mimics the SCD disease state and induces expression of adhesion markers ICAM-1 and VCAM-1, and secretion of proinflammatory cytokine IL-6. It is established that levels of ICAM-1, VCAM-1, and IL-6 can contribute to SCD pathology and correlate with the incidence and severity of complications in SCD patients. The VEC model sought to test the ability of amino acids to reduce the TNFa-induced disease phenotype by lowering expression of adhesion markers (ICAM-1 and VCAM-1) and inflammatory cytokines (IL-6) while promoting VEC health and viability.
Primary Human Lung Microvascular Endothelial Cells (HLMVEC; Lonza) were seeded at 6,000 cells per well in Endothelial Cell Growth Basal Medium-2 (Lonza) supplemented with Fetal Bovine Serum (FBS; Lonza), human EGF (Lonza), human VEGF (Lonza), R3-Insulin-like Growth Factor-1 (Lonza), ascorbic acid (Lonza), hydrocortisone (Lonza), human FGF-beta (Lonza), and gentamicin/amphotericin-b (Lonza) in a 96-well plate (Thermo Fisher). The cells were incubated for 45 minutes at room temperature, then incubated overnight at 37° C./5% CO2.
Following overnight incubation, cell were washed once with 150 μL of Dulbecco's phosphate buffered saline (DPBS; Gibco), and then treated with Endothelial Basal Medium MCB-131 (amino acid, glucose, sodium pyruvate, and phenol red free; US Biologicals) containing a defined custom amino acid concentration based on physiological concentrations in blood of patients with SCD (thus recapitulating observed metabolic imbalances such as the depletion of certain essential amino acids including arginine and aspartate and enrichment of certain non-essential amino acids including glutamate and asparagine), dialyzed FBS (Hyclone), human EGF (Lonza), human VEGF (Lonza), R3-Insulin-like Growth Factor-1 (Lonza), ascorbic acid (Lonza), hydrocortisone (Lonza), human FGF-beta (Lonza), and gentamicin/amphotericin-b (Lonza), glucose, 10 mM HEPES, sodium pyruvate, and sodium bicarbonate supplemented with one of the following: • a. PBS (vehicle control), • b. 0.5 ng/mL Tumor Necrosis Factor alpha (TNFα) and PBS, or; • c. 0.5 ng/mL TNFα and amino acid treatments at 20× mean physiological concentrations in plasma based on values published in the Human Metabolome Database (HMDB) in PBS.
After 24 hours of treatment, cells were washed once with 150 μL of DPBS (Gibco), then fixed with 4% paraformaldehyde. […]
(§2) Antibody binding was detected by fluorescence microscopy using a high content imager (Molecular Devices). Images were analyzed using MetaXpress 6 software to determine the integrated intensity per cell for each wavelength corresponding to ICAM-1 or VCAM-1.

For the next assay, the system named is ICAM-1. The experiment in a line: ICAM-1 cell integrated intensity in HLMVEC treated with TNFa. The conditions noted are these: 0.5 ng/mL TNFα; amino acids at 20×; 24 hours; in words.
Description: as §1
Primary Human Lung Microvascular Endothelial Cells (HLMVEC; Lonza) were seeded at 6,000 cells per well in Endothelial Cell Growth Basal Medium-2 (Lonza) supplemented with Fetal Bovine Serum (FBS; Lonza), human EGF (Lonza), human VEGF (Lonza), R3-Insulin-like Growth Factor-1 (Lonza), ascorbic acid (Lonza), hydrocortisone (Lonza), human FGF-beta (Lonza), and gentamicin/amphotericin-b (Lonza) in a 96-well plate (Thermo Fisher). […]
as §2

Assay [1] deals with sickle cell disease patient blood. In words: Reactive oxygen species (DCF fluorescence, H2O2) in sickle cell disease patient blood. How it is done:
(§3) Whole blood samples were appropriately diluted in Ca^2+- and Mg^2+-free Dulbecco's phosphate buffered saline (DPBS, Life Technologies) and the concentration of erythrocytes (RBC/ml) was measured on a Cellometer K2 Fluorescent Viability Cell Counter according to the manufacturer's RBC/AOPI protocol (Nexcelom Biosciences).
(§4) Cells were then diluted to 1*10^6 RBC/ml into either prewarmed 37° C. […] 2′-7′-dichlorofluorescin diacetate (DCF, Millipore Sigma), 20 mM in dimethyl sulfoxide (DMSO, Fisher) were added to a working concentration of 100 μM. Cells were incubated with dye for 15 minutes at 37° C., 5% CO2 in a tissue culture incubator, washed once, and resuspended in the 0.9 volumes of the same prewarmed 37° C. buffer with 5 minute spins at 500× g, accel/decal=5 in a swing arm centrifuge (Beckman Coulter). […] Where possible due to solubility constrains, pH-7.4-adjusted stock solutions of amino acids were used. Wells were mixed by pipetting and plates incubated at 37° C., 5% CO2 in a tissue culture incubator for 30 minutes. Optionally, 40 mM H2O2(Millipore Sigma) freshly prepared in the same buffer was added to bring the concentration to 2 mM, wells mixed by pipetting, and plates were incubated an additional 30, 60, 120, or 240 minutes before fluorescence measurement of ROS signal on a Synergy H4 (BioTek) microplate reader with excitation=488 nm and emission=530 nm, and gain either set to autogain, 75, or 100.

Assay [2] concerns whole blood of healthy control donors. In words: Reactive oxygen species (DCF fluorescence, H2O2) in whole blood of healthy controls. On the procedure:
as §3, §4

For the molecule `NCC(=O)O` [Gly, glycine], in the assay on VCAM-1, the “VCAM-1 expression in HLMVEC” value is “greatly reduced”. Moreover, the “TNF-α induced ICAM-1 expression levels in HLMVEC” value in the assay on ICAM-1 is reported as “reduced levels of ICAM-1 expression to a lesser extent”.
Turning to `N[C@@H](CS)C(=O)O` [cysteine], the “ROS measured in whole blood” value was “reduced ROS” in assay [1] (treated with H2O2 and untreated in DPBS); “reduced ROS” in assay [2] (healthy control donors, treated with H2O2, dose-responsive).
Regarding `N[C@@H](Cc1c[nH]c2ccccc12)C(=O)O` [tryptophan], the ROS signal entry in assay [1] (10×) is “increased ROS signal”; in assay [2] (healthy donor blood, 10×), “increased ROS signal”.
